According to article PMC13286573, “Exploration of precision coregulator TR-FRET identifies diverse signatures for LXR ligands relevant to discovery of nonlipogenic ABCA1 inducers” (eLife, 2026):
Entries after “also recorded” stand apart in the source; their conditions may differ. Like-named read-outs stand apart in the source and are kept apart here.

Columns and labels:
LXR [1] = assay: Categorization of ligands by CRT/pCRT signature; type: biochemical; conditions: response at 1 µM ligand compared with theoretical signatures
Text: With the knowledge that, in pCRT, corepressors bind to the apo-receptor; whereas coactivator binding requires a ligand-induced conformational change, we can categorize all ligands using their CRT profiles. Ligands induce three LXR conformational ensembles with CoR (destabilizing D, stabilizing S, neutral N) and only two conformations with CoA (stabilizing S, neutral N) (Figure 9 (Table 1)). In categorizing ligands based upon these CRT characteristics, labels are needed.
The category for each ligand is not always identical for LXRα vs. LXRβ. Similarly, the phenotype associated with each classification is isoform dependent. Recruitment of CoA to LXRβ by FA, WA, and PA will activate transcription; whereas, lack of recruitment by SA, HA, and RA will antagonize transcription (Figure 9 (Table 1)). Stabilization of CoA and/or destabilization of CoR bound to LXRα is a derepression mechanism leading to activation/transcription for FA, WA, and RA; whereas partial activation is expected for PA.
To determine which LXR ligands fit with these theoretical CRT signatures, concentration-response curves were interpolated to measure normalized response at 1 µM ligand concentration and plotted as a heat map (Figure 9A).

LXRβ [2] = molecular target: T1, LXRβ (Homo sapiens, UniProt P55055); assay: SRC-1 coactivator recruitment to LXRβ, coregulator TR-FRET (CRT); type: biochemical; design: The CRT selectivity assay incorporates GST-tagged LXR-LBD; purchased Thermo Fisher Scientific PV4660
T1 sequence (P55055 222-460 limits assumed): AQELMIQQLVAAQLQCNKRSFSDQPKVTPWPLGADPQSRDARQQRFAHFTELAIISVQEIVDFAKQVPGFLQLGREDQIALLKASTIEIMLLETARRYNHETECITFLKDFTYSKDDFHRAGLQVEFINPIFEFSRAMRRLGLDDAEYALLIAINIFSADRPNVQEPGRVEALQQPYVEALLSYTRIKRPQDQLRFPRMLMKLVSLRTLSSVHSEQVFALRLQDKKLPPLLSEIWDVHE

LXRα = molecular target: T2, LXRα (Homo sapiens, UniProt Q13133); assay: SRC-1 coactivator recruitment to LXRα, coregulator TR-FRET (CRT); type: biochemical; design: The CRT selectivity assay incorporates GST-tagged LXR-LBD; purchased Thermo Fisher Scientific PV4657; conditions: in the presence of 24HC (3 µM)
T2 sequence (Q13133 209-447 limits assumed): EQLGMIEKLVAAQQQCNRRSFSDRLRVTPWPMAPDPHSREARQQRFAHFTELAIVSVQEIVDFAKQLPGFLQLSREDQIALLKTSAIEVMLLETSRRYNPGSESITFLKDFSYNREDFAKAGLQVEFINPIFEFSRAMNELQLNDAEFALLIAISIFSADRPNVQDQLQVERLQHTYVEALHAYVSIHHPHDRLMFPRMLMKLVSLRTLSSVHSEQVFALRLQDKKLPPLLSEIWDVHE

LXR [3] = assay: Corepressor (NCOR2, SMRT2) binding to LXR, CRT, statements across isoforms; type: biochemical; conditions: monoplex CRT, absence of coactivator
LXRβ [4] = molecular target: T1, LXRβ; assay: NCOR2 corepressor binding to LXRβ, CRT; type: biochemical; design: The CRT selectivity assay incorporates GST-tagged LXR-LBD; purchased Thermo Fisher Scientific PV4660; conditions: read-out: NCOR2β, relative % activity at 1 μM
HepG2 cells = assay: Cell viability in HepG2 cells under SRE-luc conditions; type: cell-based, human; conditions: conditions of SRE-luc measurements
Text: Figure 5. Lipogenic response of HepG2 cells to treatment with liver X receptor (LXR) ligands. […] See Figure 3—figure supplement 1 for biological replicates. […] See Figure 5—figure supplement 1 for full concentration-response curves. Figure 5—figure supplement 1. Response of HepG2 cells to treatment with liver X receptor (LXR) ligands. (A–B) Lipogenic response of HepG2 cells to treatment with liver X receptor (LXR) ligands showing full concentration-response curves for biphenyl compounds shown in Figure 5E–F. (C) Cell viability in HepG2 cells under identical conditions to those used to obtain sterol response element (SRE)-luc data. [drawing 5]

LXRβ [5] = molecular target: T1, LXRβ; assay: SMRT2 corepressor binding to LXRβ, CRT; type: biochemical; design: The CRT selectivity assay incorporates GST-tagged LXR-LBD; purchased Thermo Fisher Scientific PV4660; conditions: for activity at 1 µM: read-out: SMRT2β, relative % activity at 1 μM
SREBF1, FAS, and SCD1 = assay: RT-PCR of lipogenic genes SREBF1, FAS, SCD1 in HepG2 cells; type: cell-based, human; conditions: HepG2, same conditions as SRE-luc
Protocol: Three of the biphenyl sulfones, XL041, XL652, and SR9238, gave anomalous activation data at concentrations above 1 µM, associated with interference with the nanoluciferase reporter (Figure 5—figure supplement 1). Owing to the anomalous response in the reporter assay, we measured lipogenic genes, SREBF1, FAS, and SCD1 by RT-PCR in HepG2 cells in response to treatment with the biphenyl sulfones (Figure 5G–I).
HepG2 cells were seeded in 12-well plates and treated with compounds for 24 hr. Following treatment, cells were washed once with PBS and then lysed in 350 μL of RLT buffer (Qiagen). Lysates were immediately frozen at −80 °C until RNA extraction. Total RNA was extracted using RNeasy Plus Mini columns (Qiagen) according to the manufacturer’s instructions. RNA concentration and purity were assessed using the A260/A280 ratio measured on a Synergy Neo2 plate reader (BioTek). […] Quantitative PCR was performed using TaqMan Gene Expression Master Mix (Invitrogen) with 2 μL of cDNA and gene-specific TaqMan probes in a 20 μL reaction volume per well. The following TaqMan assays were used: ABCA1: Hs01059101_m1, SREBF1: Hs01088691_m1, SCD: Hs01682761_m1, FASN: Hs01005622_m1, and HPRT1 (endogenous control): Hs02800695_m1. qPCR was performed on a StepOne Real-Time PCR System (Applied Biosystems), and gene expression was quantified using the ΔΔCt method.

[6] = system: mouse model of non-alcoholic steatohepatitis (NASH); design: method as in Griffett et al., 2015; Griffett and Burris, 2016; conditions: ref Griffett et al., 2015; Griffett and Burris, 2016; cited from earlier work

Compound	CRT/pCRT signature category (LXR [1])	Antagonism of 24HC agonism at LXRβ (SRC-1 CRT) (LXRβ [2])	Antagonism of 24HC agonism at LXRα (SRC-1 CRT) (LXRα)	Corepressor (NCOR2, SMRT2) displacement or stabilization, across LXR isoforms (LXR [3])	activity at 1 µM (LXRβ [4])	HepG2 cell viability/cytotoxicity (HepG2 cells)	Effect on SMRT2 binding to LXRβ (LXRβ [5])	activity at 1 µM (LXRβ [5])	Lipogenic gene transcription (SREBF1, FAS, SCD1) by RT-PCR (SREBF1, FAS, and SCD1)	Hepatic effects in NASH mouse model [6]	Antagonism of 24HC agonism at LXRβ (SRC-1 CRT) (LXRβ [2]; in the presence of 24HC (3 µM))
Cc1cc(C)c(S(=O)(=O)N(Cc2ccc(-c3cccc(S(C)(=O)=O)c3)cc2)Cc2ccc(C(F)(F)F)o2)c(C)c1 [GSK2033]	HA (hard antagonist (HA))	antagonized the agonism of 24HC at LXRβ	without effect on LXRα	little or no ability to displace NCOR2 and SMRT2 corepressors from LXR; also recorded: does not stabilize a conformation that disrupts corepressor binding to LXRα	57.7%	no loss of cell viability	selectively displace SMRT2 from LXRβ	93.4%	reducing lipogenic gene transcription below baseline	no beneficial effects on hepatic steatosis	
CCOC(=O)c1ccc(CN(Cc2ccc(-c3cccc(S(C)(=O)=O)c3)cc2)S(=O)(=O)c2c(C)cc(C)cc2C)o1 [SR9238]	RA (reverse agonist (RA))		without effect on LXRα	strong agonist responses	21.9%	no loss of cell viability		69.2%	reducing lipogenic gene transcription below baseline	significantly reduced hepatic inflammation and fibrosis	antagonized the agonism of 24HC at LXRβ
